Results from patent US20260199485A1, “RNA DEGRADERS AND USES THEREOF” (Arrakis Therapeutics, Inc., priority 2022, published 2026).

Assays:
[1] = biological target: T1, CNOT7-FKBP12(F36V) fusion protein (Homo sapiens, UniProt Q9UIV1); assay: Biochemical gel assay: degradation/deadenylation of RNA substrate with immunoprecipitated CNOT7-FKBP12(F36V); parameters: key to Activity by gel: +: an activity observed as compared to DMSO control; −: no activity observed as compared to DMSO control; details: for interference with the ability of CNOT7 to degrade RNA: compound added to the CNOT7 and RNA mixture (FIG. 11); for Activity by gel: Table 8, degradation of RNA, compared to DMSO control
T1 construct: expressed in transfected cells; host or cells: H1299 cells; anti-HA immunoprecipitation, HA-peptide elution
Excerpt: Biochemical reporter systems were generated to evaluate the ability of CNOT7 binding compounds to accelerate the degradation of RNA by CNOT7. […] Generation of the target RNA was described in the previous experiment. […] The bifunctional molecules consist of Compound 1-4 and the following rSM:
which binds to the RNA sequence of AST-X, or the rSM linked to a tag that binds CNOT7-FKBPV. Specifically, the tag is compound AP1867 (CAS NO.: 195514-23-9), a known binder of FKBPV, resulting in the rSM-AP1867tag. The CNOT7-FKBPV is obtained by immunoprecipitation of cell engineered to express CNOT-FKBPV. Specifically, H1299 cells were transfected with plasmid expressing HA-tagged CNOT7-FKBP12(F36V) fusion protein. After 24 hours, cells were pelleted and lysed in the following lysis buffer: 20 mM HEPES pH 7.3, 0.2 mM EGTA, 10% glycerol, 0.1 mM DTT with cOmplete EDTA-free protease inhibitors (Millipore). After freeze-thawing, NaCl was added to a concentration of 400 mM and lysates were pelleted to clear cellular debris. Cleared lysate was adjusted to buffer conditions containing 0.1% NP-40 and 150 mM NaCl before being applied to Pierce Anti-HA magnetic beads (ThermoFisher) at 4° C. for 2-20 hours with end-over-end rotation. After washing, bound protein was competitively eluted with 2 mg/mL HA peptide (ThermoFisher) in activity assay buffer at 4° C. for 2-20 hours. It should be appreciated that this immunoprecipitation protocol will result in tagged CNOT7 that will likely have other components of the CCR4-NOT complex bound as well.
The reactions were incubated at 37° C., with specified timepoints removed from the reaction and combined with 2× formamide RNA loading buffer with 10 mM EDTA before boiling for 3 minutes to quench the reaction. Samples were run on a pre-warmed 15% TBE-Urea polyacrylamide gel at 180V for 90 minutes and then imaged using Cy2 settings on the Azure Biosystems 600 Imaging System. […] It should be noted that the CCR4-NOT complex includes proteins other than CNOT7, for instance CNOT6, that have deadenylation and/or exonuclease activity.
These findings were confirmed in the biochemical assay described above. […] In contrast, literature compounds that are active site binders, compounds A, B and C, structure depicted on the right-hand side, do interfere with the ability of CNOT7 to degrade RNA (See center panel of gel).
Heterobifunctional molecules were generated by conjugating the rSM depicted above, which binds RNA with an AST-X sequence, to AP1867 (a small molecule binder of FKBP12(F36V)), resulting in rSM-AP1867tag. In addition, I-243 was conjugated to the rSM resulting in compounds 1-329 and I-371, depicted in FIG. 17. Fluorescently labeled RNA substrates were refolded in the presence of Mg^2+ and incubated 10, 25, or 50 μM doses of heterobifunctional molecules for 30 minutes at room temperature before the enzymatic reaction was initiated with the elution fraction (containing CNOT7-FKBP12(F36V) fusion protein) from the immunoprecipitation protocol above. The reactions were incubated at 37° C., with specified timepoints removed from the reaction and combined with 2× formamide RNA loading buffer with 10 mM EDTA before boiling for 3 minutes to quench the reaction. Samples were run on a pre-warmed 15% TBE-Urea polyacrylamide gel at 180V for 120 minutes and then imaged using Cy2 settings on the Azure Biosystems 600 Imaging System (See FIGS. 18, 19A and 19B). In addition, for 1-371 and the control rSM-AP1867tag, the disappearance of the full-length substrate band was quantified using ImageJ and plotted over time (FIG. 19B).

[2] = biological target: T2, CNOT7 (Homo sapiens, UniProt Q9UIV1); assay: AMP competition assay by SPR (active site vs other site of CNOT7); type: binding; details: combination with AMP, increasing concentrations
T2 construct: biotin (biotinylated); purchased Ichor Life Sciences
Protocol: In order to evaluate if the compounds bound to the active site of CNOT7, an AMP competition experiment was performed. FIG. 5 provides a schematic of a surface plasmon resonance (SPR) experiment to interrogate if a CNOT7 binding compound binds in the active site of CNOT7. Briefly, AMP, which is a known binder to the active site, was interrogated at increasing concentrations for binding to CNOT7. As a next step, a CNOT7 binding compound was interrogated at increasing concentrations for binding to CNOT7. As a final step a combination of AMP and CNOT7 binding compound was interrogated by SPR at increasing concentrations for binding to CNOT7. If the signals were additive, AMP and the CNOT7 compounds bind to independent sites on CNOT7. […] In contrast, if the signals are not additive, this would indicate that AMP and CNOT7 […] for the same site. […] As a control, literature compounds that are active site binders, compounds A, B and C, are not additive when combined with AMP.

[3] = biological target: T2, CNOT7; assay: Binding of compounds to CNOT7 by surface plasmon resonance (SPR)
In short: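 Biotinylated CNOT7 captured on a streptavidin chip (~7,500 RU); compounds injected at several concentrations (120 s association, 120 s dissociation, 30 ul/min) in 20 mM HEPES pH7.5, 100 mM KCl, 3 mM MgCl2, 1 mM TCEP, 0.05% tween-20, 2% DMSO. Reference- and solvent-corrected sensograms fit to a 1:1 steady-state affinity model.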

[4] = biological target: T2, CNOT7; assay: CNOT7 inhibition assay (recombinant Avi-tagged CNOT7, deadenylation gel); type: biochemical; details: 50 μM compound, 100 nM recombinant Avi-tagged CNOT7, 200 nM RNA
Protocol: Recombinant CNOT7 (with a C-terminal Avi tag) was produced in E. coli and purified to high purity. For this biochemical assay, deadenylation reactions are carried out by refolding 2 microM fluorescently labeled RNA substrate (5′ 6-FAM-[…] AAAAAA (SEQ ID NO:1) in the presence of 100 mM KCl and 3 mM MgCl2 at 37 C for 30 minutes and then pre-incubating the RNA with 500 microM compound (inhibitor, heterobifunctional, or the CNOT7 binding moiety of the heterobifunctional) at room temperature for 30 minutes (in the presence of 0.05% Tween-20) before initiating the deadenylation reaction with the addition of the recombinant CNOT7 (with Avi-tag). In the reactions, the final concentration of RNA was 200 nM, the final concentration of the compounds was 50 μM, and the final concentration of CNOT7 was 100 nM. Glycerol and BSA were included in the reactions to aid in protein stability and activity (final concentrations of 5% and 0.15 mg/mL, respectively). Timepoints were removed from the reaction and quenched by adding formamide loading dye including 10 mM EDTA. Samples were run on 15% TBE-Urea gels at 180V for 2-2.5 hours and imaged using an Azure imager with FAM detection settings. Bands were quantified using ImageJ and % full length substrate over time was normalized to band intensity at time zero.
This was to be expected as the CNOT7 binding moieties are not expected to bind in the active site or interfere with the ability of CNOT7 to deadenylate RNA. […] We speculate that the inhibition is caused by specific interaction of the heterobifunctional compounds with the recombinant Avi-tagged CNOT7.

[5] = biological target: T3, CNOT7:CNOT1 complex (Homo sapiens, UniProt Q9UIV1); assay: CNOT7:CNOT1 recombinant assay (deadenylation gel); type: biochemical; details: 50 microM compound, 50 nM CNOT7:CNOT1
T3 construct: purchased Helix Biosciences; host or cells: E. coli
Protocol: Recombinant CNOT7:CNOT1 (MIF4G domain: aa 1093-1317) complex was produced in E. coli including an 8×His affinity tag, which was cleaved prior to use. The resulting untagged complex was purified to high purity (Helix Biosciences). For this biochemical assay, deadenylation reactions are carried out by refolding 2 microM fluorescently labeled RNA substrate (5′ 6-FAM-[…] AAAAAA (SEQ ID NO:1)) in the presence of 100 mM KCl and 3 mM MgCl2 at 37 C for 30 minutes and then pre-incubating the RNA with 500 microM compound (inhibitor, heterobifunctional, or the CNOT7 binding moiety of the heterobifunctional) at room temperature for 30 minutes (in the presence of 0.05% Tween-20) before initiating the deadenylation reaction with the addition of recombinant CNOT7:CNOT1 complex. In the reactions, the final concentration of RNA was […], the final concentration of the compounds was 50 microM, and the final concentration of CNOT7:CNOT1 was 50 nM. Glycerol and BSA were included in the reactions to aid in protein stability and activity (final concentrations of 5% and 0.15 mg/mL, respectively). Timepoints were removed from the reaction and quenched by adding formamide loading dye including 10 mM EDTA. Samples were run on 15% TBE-Urea gels at 180V for 2-2.5 hours to resolve substrate and product bands and imaged using an Azure imager with FAM detection settings. Bands were quantified using ImageJ and % full length substrate over time was calculated by [Intensity of substrate band]/[Total intensity of full lane of gel].

[6] = Table 4, dissociation constant for CNOT7
[7] = Table 5, dissociation constant for CNOT7 by SPR
[8] = dissociation constant by SPR, Table 7

T2 sequence (Q9UIV1 whole entry): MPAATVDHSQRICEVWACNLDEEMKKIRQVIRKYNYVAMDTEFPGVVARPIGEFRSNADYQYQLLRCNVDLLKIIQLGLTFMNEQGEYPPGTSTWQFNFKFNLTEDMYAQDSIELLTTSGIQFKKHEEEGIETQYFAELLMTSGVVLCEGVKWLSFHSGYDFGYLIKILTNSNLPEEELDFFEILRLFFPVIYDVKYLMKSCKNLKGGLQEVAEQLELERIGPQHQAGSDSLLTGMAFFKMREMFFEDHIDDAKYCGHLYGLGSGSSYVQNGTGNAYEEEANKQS
T3 sequence (Q9UIV1 whole entry): as above
T3 sequence (A5YKK6 1093-1317 partner limits assumed): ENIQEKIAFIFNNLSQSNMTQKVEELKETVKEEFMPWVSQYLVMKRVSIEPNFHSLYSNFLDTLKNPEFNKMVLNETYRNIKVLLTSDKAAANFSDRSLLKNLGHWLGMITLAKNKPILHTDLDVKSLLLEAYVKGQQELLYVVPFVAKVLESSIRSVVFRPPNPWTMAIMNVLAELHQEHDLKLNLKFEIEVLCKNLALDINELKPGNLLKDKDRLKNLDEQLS
T1 sequence (Q9UIV1 with tags, fused parts or gaps): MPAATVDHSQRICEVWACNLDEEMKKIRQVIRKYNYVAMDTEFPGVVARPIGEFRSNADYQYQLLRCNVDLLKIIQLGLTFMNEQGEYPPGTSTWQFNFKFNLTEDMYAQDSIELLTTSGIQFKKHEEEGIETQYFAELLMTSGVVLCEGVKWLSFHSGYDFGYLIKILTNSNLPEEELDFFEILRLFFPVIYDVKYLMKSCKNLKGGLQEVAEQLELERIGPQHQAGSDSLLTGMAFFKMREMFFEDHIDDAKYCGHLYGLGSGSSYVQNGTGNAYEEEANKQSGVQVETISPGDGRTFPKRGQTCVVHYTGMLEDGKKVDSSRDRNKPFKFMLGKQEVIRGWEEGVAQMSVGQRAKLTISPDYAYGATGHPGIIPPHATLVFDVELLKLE

Question: What does the source list for Cc1c[nH]c(=O)nc1SCC(=O)NCc1ccc2c(c1)OCO2 [Compound I-1]?
Answer: interference with the ability of CNOT7 to degrade RNA [1]: did not interfere; SPR signal additive to AMP (additive = binds CNOT7 at a location other than the active site) [2]: additive to AMP; Kd [3, 6]: 1000 to 25000 nM

Question: Cc1c[nH]c(=O)nc1SCC(=O)NCc1ccccc1 [Compound I-3, N-Benzyl-2-[(5-methyl-2-oxo-1H-pyrimidin-4-yl)sulfanyl]acetamide] was tested. Which “interference with the ability of CNOT7 to degrade RNA” value [1] did it give?
Answer: did not interfere

Question: What about the “SPR signal additive to AMP (additive = binds CNOT7 at a location other than the active site)” value [2] of the same molecule?
Answer: additive to AMP

Question: And the Kd [3, 6]?
Answer: > 25000 nM

Question: How did the “interference with the ability of CNOT7 to degrade RNA” value [1] turn out when COc1ccc(CNC(=O)CSc2nc(=O)[nH]cc2C)cc1 [Compound I-4] was run?
Answer: did not interfere

Question: And the “SPR signal additive to AMP (additive = binds CNOT7 at a location other than the active site)” value [2]?
Answer: additive to AMP

Question: And the Kd [3, 6]?
Answer: 1000 to 25000 nM

Question: How did the “inhibition of CNOT7 activity (rate of deadenylation vs DMSO control)” value [4] turn out when COc1ccc2c(c1)CCN(C(=O)CSc1nc(=O)[nH]cc1C)C2 [Compound I-198] was run?
Answer: did not inhibit CNOT7 activity

Question: What about the Kd [3, 7] of the same molecule?
Answer: 1000 to 25000 nM

Question: What about the “inhibited or accelerated the deadenylation activity of the CNOT7:CNOT1 complex” value [5] of the same molecule?
Answer: neither

Question: With COc1ccc(C(C)NC(=O)CSc2nc(=O)[nH]cc2C)c(F)c1 (centres unmarked) [Compound I-243] as the molecule, how does the “inhibition of CNOT7 activity (rate of deadenylation vs DMSO control)” value [4] read?
Answer: slightly inhibited CNOT7 activity

Question: And the Kd [3, 7]?
Answer: 100 to 1000 nM

Question: What about the “inhibited or accelerated the deadenylation activity of the CNOT7:CNOT1 complex” value [5] of the same molecule?
Answer: neither

Question: What does the source list for COc1ccc([C@@H](C)NC(=O)CSc2nc(=O)[nH]cc2Cl)c(F)c1 [Compound I-330]?
Answer: inhibition of CNOT7 activity (rate of deadenylation vs DMSO control) [4]: slightly inhibited CNOT7 activity; Kd ([3]; Table 6, dissociation constant for CNOT7 by SPR): 100 to 1000 nM; Kd [3, 8]: 1000 to 25000 nM; inhibited or accelerated the deadenylation activity of the CNOT7:CNOT1 complex [5]: neither

Question: Which Activity by gel [1] does the source give for COc1ccc([C@@H](C)NC(=O)[C@@H](CCOCCOCCOCCn2cc(COCCOCCOCCOCCOc3ccc(NC(=O)Nc4nc(CC(=O)N5CCN(C)CC5)cs4)cc3)nn2)Sc2nc(=O)[nH]cc2Cl)c(F)c1 [Compound I-397] here?
Answer: +

Question: And the “inhibition of CNOT7 activity (rate of deadenylation vs DMSO control)” value [4]?
Answer: inhibit some of the CNOT7 activity

Question: And the Kd [3, 8]?
Answer: 1000 to 25000 nM

Question: What does the source list for COc1ccc2c(c1)C[C@H](COCCOCCOCCOCCn1cc(COCCOCCOc3ccc(NC(=O)Nc4nc(CC(=O)N5CCN(C)CC5)cs4)cc3)nn1)C(C(=O)CSc1nc(=O)[nH]cc1C)C2 (some centres unmarked) [Compound I-496]?
Answer: Activity by gel [1]: +; inhibition of CNOT7 activity (rate of deadenylation vs DMSO control) [4]: inhibit some of the CNOT7 activity; Kd [3, 8]: > 25000 nM; inhibited or accelerated the deadenylation activity of the CNOT7:CNOT1 complex [5]: neither
